From ChEMBL document CHEMBL4811216, “Chemotherapy for human schistosomiasis: how far have we come? What's new? Where do we go from here?” (RSC Med Chem, 2020) come the findings set out here.

Bounds are passed on as bounds.

Assay [1] has as its system Schistosoma mansoni. In words: Antischistosomal activity against Schistosoma mansoni infected in mouse assessed as worm burden reduction at 200 mg/kg, po administered as single dose and measured after 17 to 21 days relative to control. The class given is functional. More on the design: scale not given: the % may be the effect or the level left. The note with it: time 17-21 day.

Assay [2] concerns Schistosoma mansoni. In words: Antischistosomal activity against adult Schistosoma mansoni measured after 72 hrs by microscopic method. The format is functional, organism-based.
Assay [3] concerns Schistosoma haematobium. Nature of the assay: Antischistosomal activity against adult Schistosoma haematobium assessed as reduction in worm viability at 100 uM measured after 4 hrs by microscopic method relative to control. The class given is functional.
The subject of assay [4] is Schistosoma haematobium. Nature of the assay: Antischistosomal activity against adult Schistosoma haematobium assessed as reduction in worm viability at 100 uM measured after 48 hrs by microscopic method relative to control. The class given is functional.
Assay [5] deals with Schistosoma mansoni. Nature of the assay: Antischistosomal activity against Schistosoma mansoni infected in NMRI mouse assessed as worm burden reduction at 100 mg/kg, po administered as single dose relative to control. The class given is functional. More on the design: scale not given: the % may be the effect or the level left.
The test system of assay [6] is L6. Nature of the assay: Cytotoxicity against rat L6 cells measured after 72 hrs by alamar blue assay. To be noted: L6, 72 h. The format is functional, cell-based. (In general: Alamar Blue is a resazurin reagent that responds to reducing activity.)
In assay [7] the test system is Schistosoma mansoni. Nature of the assay: Antischistosomal activity against female Schistosoma mansoni Egyptian strain infected in BALB/c mouse assessed as reduction in worm burden at 200 mg/kg, po measured after 2 weeks. The format is functional. More on the design: scale not given: the % may be the effect or the level left.
In assay [8] the test system is Schistosoma mansoni. Nature of the assay: Antischistosomal activity against female Schistosoma mansoni Egyptian strain infected in BALB/c mouse assessed as reduction in total worm burden at 200 mg/kg, po measured after 2 weeks by scanning electron microscopy. The format is functional. More on the design: scale not given: the % may be the effect or the level left.
In assay [9] the test system is Schistosoma mansoni. Nature of the assay: Antischistosomal activity against female Schistosoma mansoni Egyptian strain infected in BALB/c mouse assessed as reduction in female worm burden at 300 mg/kg, po measured after 2 weeks by scanning electron microscopy relative to control. The format is functional. More on the design: scale not given: the % may be the effect or the level left.

The subject of assay [10] is Schistosoma mansoni. Nature of the assay: Antischistosomal activity against female Schistosoma mansoni Egyptian strain infected in BALB/c mouse assessed as reduction in male worm burden at 300 mg/kg, po measured after 2 weeks by scanning electron microscopy relative to control. More on the design: scale not given: the % may be the effect or the level left. The class given is functional.

For assay [11], the system named is Schistosoma mansoni. In words: Antischistosomal activity against female Schistosoma mansoni Egyptian strain infected in BALB/c mouse assessed as reduction in total worm burden at 300 mg/kg, po measured after 2 weeks by scanning electron microscopy relative to control. Set-up: scale not given: the % may be the effect or the level left. The format is functional.

The test system of assay [12] is Schistosoma mansoni. Nature of the assay: Antischistosomal activity against Schistosoma mansoni LE infected in BALB/c mouse assessed as reduction in worm burden at 10 mg/kg, ip administered for 5 consecutive days starting from day 1 post infection by microscopic method relative to control. The class given is functional. More on the design: scale not given: the % may be the effect or the level left.

Assay [13] relates to Schistosoma mansoni. In words: Antischistosomal activity against Schistosoma mansoni LE infected in BALB/c mouse assessed as reduction in worm burden at 10 mg/kg, ip administered for 5 consecutive days starting from day 23 by microscopic method relative to control. More on the design: scale not given: the % may be the effect or the level left. The class given is functional.

The test system of assay [14] is Schistosoma mansoni. Nature of the assay: Schistosomicidal-activity against adult Schistosoma mansoni incubated overnight followed by replacement of medium and measured on day 5 by stereomicroscopy. The format is functional, organism-based. To be noted: 120 h.
Assay [15] deals with Schistosoma mansoni. In words: Antischistosomal activity against Schistosoma mansoni infected in NMRI mouse assessed as worm burden reduction at 200 mg/kg, po administered as single dose measured after 16 to 18 days. The class given is functional, organism-based. Set-up: scale not given: the % may be the effect or the level left. To be noted: time 16-18 day.
Assay [16] concerns Schistosoma mansoni. In words: Antischistosomal activity against Schistosoma mansoni Liberian infected in NMRI mouse assessed as worm burden reduction at 100 mg/kg, po measured after 14 days relative to control. The class given is functional. Set-up: scale not given: the % may be the effect or the level left. To be noted: time 14 day.
The subject of assay [17] is Schistosoma haematobium. In words: Antischistosomal activity against Schistosoma haematobium Egyptian infected in NMRI mouse assessed as worm burden reduction at 200 mg/kg, po measured after 14 days. The class given is functional. More on the design: scale not given: the % may be the effect or the level left. To be noted: time 14 day.
Assay [18] has as its system Schistosoma mansoni. In words: Antischistosomal activity against Schistosoma mansoni assessed as worm killing effect at 100 uM measured after 24 hrs by phase-contrast microscopy relative to control. The format is functional.
The test system of assay [19] is Schistosoma mansoni. Nature of the assay: Antischistosomal activity against male Schistosoma mansoni assessed as worm killing effect at 100 uM measured after 24 hrs by phase-contrast microscopy relative to control. The class given is functional.
In assay [20] the test system is Schistosoma mansoni. Nature of the assay: Antischistosomal activity against female Schistosoma mansoni assessed as worm killing effect at 100 uM measured after 24 hrs by phase-contrast microscopy relative to control. The class given is functional.
In assay [21] the test system is Schistosoma mansoni. In words: Antischistosomal activity against Schistosoma mansoni infected in Swiss albino mouse assessed as reduction in worm burden at 20 mg/kg, po administered for 5 days relative to control. The class given is functional. More on the design: scale not given: the % may be the effect or the level left. To be noted: time 5 day.
Assay [22] concerns Schistosoma mansoni. In words: Antischistosomal activity against Schistosoma mansoni infected in Swiss albino mouse assessed as reduction in intestinal tissue egg burden at 20 mg/kg, po administered for 5 days relative to control. To be noted: time 5 day. More on the design: scale not given: the % may be the effect or the level left. The format is functional.
Assay [23] has as its system Schistosoma mansoni. In words: Potentiation of praziquantel-induced antischistosomal activity against Schistosoma mansoni infected in Swiss albino mouse assessed as worm burden at 20 mg/kg, po administered for 5 days (reference value: 60%). The format is functional. The note with it: time 5 day.
Assay [24] concerns Schistosoma mansoni. In words: Potentiation of praziquantel-induced antischistosomal activity against Schistosoma mansoni infected in Swiss albino mouse assessed as intestinal egg burden at 20 mg/kg, po administered for 5 days (reference value: 67%). The format is functional. To be noted: time 5 day.
Assay [25] has as its system Schistosoma mansoni. Nature of the assay: Antischistosomal activity against adult Schistosoma mansoni LE assessed as worm mortality at 100 ug/ml incubated for 72 hrs by inverted microscopic method relative to control. The format is functional.
Assay [26] deals with Schistosoma mansoni. Nature of the assay: Antischistosomal activity against adult Schistosoma mansoni LE assessed as reduction in worm vitality measured every 24 hrs by inverted microscopy. The class given is functional, organism-based.
Assay [27] deals with Schistosoma mansoni. Nature of the assay: Antischistosomal activity against Schistosoma mansoni LE schistosomula assessed as reduction in worm vitality measured every 24 hrs by inverted microscopy. The format is functional, organism-based.
Assay [28] concerns Schistosoma mansoni. In words: Schistosomicidal-activity against Schistosoma mansoni infected in NIH-Swiss mouse assessed as reduction in skin staged worm burden at 10 mg/kg, ip administered daily for 5 consecutive days relative to control. Set-up: scale not given: the % may be the effect or the level left. The class given is functional.
In assay [29] the test system is Schistosoma mansoni. Nature of the assay: schistosomicidal-activity against Schistosoma mansoni infected in NIH-Swiss mouse assessed as reduction in liver-staged worm burden at 10 mg/kg, ip administered daily for 5 consecutive days relative to control. More on the design: scale not given: the % may be the effect or the level left. The class given is functional.
For assay [30], the system named is Schistosoma mansoni. Nature of the assay: schistosomicidal-activity against adult Schistosoma mansoni infected in NIH-Swiss mouse assessed as reduction in worm burden at 10 mg/kg, ip administered daily for 5 consecutive days relative to control. The class given is functional. Set-up: scale not given: the % may be the effect or the level left. The note with it: time 5 day.

Assay [31] deals with Schistosoma mansoni. In words: Antischistosomal activity against Schistosoma mansoni LE assessed as worm mortality at 100 ug/ml measured after 72 hrs by inverted microscopic method relative to control. The class given is functional.
The subject of assay [32] is Schistosoma mansoni. Nature of the assay: Antischistosomal activity against Schistosoma mansoni LE assessed as worm mortality at 100 ug/ml measured after 144 hrs by inverted microscopic method relative to control. The class given is functional. To be noted: dose 100 µg/ml.

For `NC(=O)c1nc(-c2ccc(C(F)(F)F)c(F)c2)cnc1Nc1cnc(OCCCN2CCCCC2)nc1`, in assay [1], the Activity is listed as 37.6%.
As usually defined, the IC50 is the midpoint of a concentration-inhibition curve. On to `CC(C)N(Cc1ccccc1)CC1CCc2cc(CCl)c([N+](=O)[O-])cc2N1` (configuration not stated), for which the IC50 in assay [2] was 11.1 µM; in assay [6], greater than 73 µM. The Activity is 75% in [3], 100% in assay [4] and 76.1% in assay [5].
On to `CC(C)Oc1ccc(-c2ccc(-c3nc4ccccc4[nH]3)s2)cc1`, for which the Activity in assay [7] was 66%; in [8] it was 44%; in assay [9], 76.5%; in assay [10], 34.6%; in assay [11], 55.3%; in assay [12] it was 34.6%. Moreover, in assay [13], the Activity is given as 55.3%.
Broadly, the EC50 is the midpoint of the concentration-response curve. On to `O=C(C1CCCCC1)N1CC(=O)N2CCc3sccc3C2C1` (configuration not stated), for which the response in assay [14] was half-maximal at 0.9 µM (EC50).
For `Fc1ccc(Cl)cc1-c1nc(Nc2ccncc2)c2nccnc2n1`, the Activity in [15] was 51.6%.
As to `OC(c1cc(-c2ccccc2)nc2c(Cl)cc(Cl)cc12)C1CCCCN1` (configuration not stated), the figures for the Activity in assay [16] and in assay [17] were 87% and 100%, respectively.
In the case of `Brc1ccc(-c2c[nH]c(-c3ccccn3)n2)cc1`, the Activity in assay [18] is recorded as 56%; in assay [19], 100%; in [20], 0%; in assay [21] it was 29%; in assay [22] it was 35%; in assay [23], 96%. In addition, the Activity in assay [24] came out at 83%.
One may read the mortality as the percentage killed. As to `O=C1c2ccccc2C(=O)N1C/C=N/N=c1\[nH]c(-c2ccccc2)cs1`, the mortality at 100 µg/mL in assay [25] turned out to be 100%. In addition, the EC50 in [26] turned out to be 37.5 µM; in assay [27], 5.15 µM.
In the case of `N#Cc1c(-c2ccccc2)no[n+]1[O-]`, the values for the Activity in assay [28], in [29] and in assay [30] were 99%, 88% and 94%, respectively.
For the molecule `COc1ccc(-c2cs/c(=N/N=C/CN3C(=O)c4ccccc4C3=O)[nH]2)cc1`, the mortality at 100 µg/mL in assay [31] is 60%. The Activity in assay [32] is given as 100%.
